These results are taken from ChEMBL document CHEMBL1154026, “FXR agonist activity of conformationally constrained analogs of GW 4064” (Bioorg Med Chem Lett, 2009).

Series [1] addresses T1, Bile acid receptor (Homo sapiens, UniProt Q96RI1).
T1 sequence (Q96RI1 whole entry): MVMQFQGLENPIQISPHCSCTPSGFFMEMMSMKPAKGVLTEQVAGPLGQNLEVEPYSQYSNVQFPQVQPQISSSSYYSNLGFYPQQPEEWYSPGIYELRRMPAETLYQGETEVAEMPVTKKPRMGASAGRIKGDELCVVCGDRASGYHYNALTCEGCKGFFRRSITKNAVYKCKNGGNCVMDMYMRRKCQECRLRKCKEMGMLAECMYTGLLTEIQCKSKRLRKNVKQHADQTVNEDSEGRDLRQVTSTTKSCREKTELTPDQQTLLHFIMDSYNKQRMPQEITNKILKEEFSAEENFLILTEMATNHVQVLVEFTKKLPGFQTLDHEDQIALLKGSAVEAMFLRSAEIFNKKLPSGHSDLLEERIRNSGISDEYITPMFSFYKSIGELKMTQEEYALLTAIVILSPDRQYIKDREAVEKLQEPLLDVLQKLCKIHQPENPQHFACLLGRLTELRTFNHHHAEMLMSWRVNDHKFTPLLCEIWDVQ
Description: Induction of SRC1 coactivator peptide binding to ligand binding domain of human FXR by FRET assay.

The target in series [2] is T1, Bile acid receptor. Description: Increase in human FXR-mediated transient transcription of luciferase reporter gene transfected in african green monkey CV1 cells. The series is classed as cell-based, CV-1.
Series [3] concerns the target T2, Bile acid receptor (Homo sapiens) (UniProt Q96RI1).
T2 sequence (whole entry): T1 sequence (Q96RI1 whole entry)
Description: Induction of SRC1 coactivator peptide binding to ligand binding domain of human FXR by FRET assay relative to GW-4064. Further details: concentration or dose not given beside the values.

Series [4] deals with T2, Bile acid receptor (Homo sapiens). As to the kind of experiment: Increase in human FXR-mediated transient transcription of luciferase reporter gene transfected in african green monkey CV1 cells relative to GW-4064. As to conditions: CV-1. The format is cell-based. Further details: concentration or dose not given beside the values. (In general: Reporter assays use an easily measured gene product as a stand-in for the process of interest.)

The nature of series [5]: Oral bioavailability in rat at 5 mg/kg. The format is ADME, organism-based. To be noted: in vivo.
Series [6] in a line: Terminal half life in rat at 1 mg/kg, iv. The series is classed as ADME, organism-based. On the set-up: dose 1 mg/kg, route intravenous. To be noted: in vivo, read-out: beta t1/2.
A short description of series [7]: Volume of distribution at steady state in rat at 1 mg/kg, iv. The series is classed as ADME, organism-based. Further details: dose 1 mg/kg, route intravenous. As to conditions: in vivo, read-out: Vdss.
The nature of series [8]: Total clearance in rat at 1 mg/kg, iv. Further details: dose 1 mg/kg, route intravenous. The series is classed as ADME, organism-based. To be noted: in vivo.

Usually EC50 stands for the concentration needed to bring the measured effect to its halfway point. Usually bioavailability stands for the share of a dose that reaches the circulation, judged against a reference dose that is usually intravenous. As a reminder, the clearance is the volume of plasma or blood freed of the substance per unit of time.

Some results are limits rather than exact numbers.

Turning to `CC(C)c1onc(-c2c(Cl)cccc2Cl)c1COc1ccc2cc(-c3ccc(C(=O)O)cc3)sc2c1`, the 50% effective concentration (EC50) in series [1] turned out to be 200 nM; in series [2], 220 nM. Further, the Activity in series [3] came out at 95%; in series [4], 79%.
The matching figures for `CC(C)c1onc(-c2c(Cl)cccc2Cl)c1COc1ccc2c(ccn2C(=O)c2cccc(C(=O)O)c2)c1`: 150 nM, 860 nM, 68% and 63%.
On the same counts, the results for `CC(C)c1onc(-c2c(Cl)cccc2Cl)c1COc1ccc2sc(-c3ccc(C(=O)O)cc3)cc2c1` are 280 nM, 160 nM, 80% and 89%.
Consider `CC(C)c1onc(-c2c(Cl)cccc2Cl)c1COc1ccc2cc(-c3cccc(C(=O)O)c3)sc2c1`, for which the EC50 worked out at 140 nM in series [1] and 63 nM in series [2]. The Activity in series [3] was 92%; in series [4], 93%.
Regarding `CC(C)c1onc(-c2c(Cl)cccc2Cl)c1COc1ccc2c(c1)CC(=O)N(c1cccc(C(=O)O)c1)C2`, the EC50 in series [1] is 1100 nM; in series [2], over 10000 nM. Moreover, the Activity in series [3] was determined as 75%.
For the compound `CC(C)c1onc(-c2c(Cl)cccc2Cl)c1COc1ccc2c(Nc3cccc(C(=O)O)c3)cccc2c1`, the EC50 in series [1] is 320 nM; in series [2] it was 81 nM. For the same compound, the Activity in series [3] came to 95%; in series [4], 57%.
The matching figures for `CC(C)c1onc(-c2c(Cl)cccc2Cl)c1COc1ccc2c(c1)CN(c1cccc(C(=O)O)c1)C2=O`: 670 nM, 1100 nM, 59% and 61%.
On the same counts, the results for `CC(C)c1onc(-c2c(Cl)cccc2Cl)c1COc1ccc2nc(-c3cccc(C(=O)O)c3)sc2c1` are 410 nM, 410 nM, 72% and 86%.
`CC(C)c1onc(-c2c(Cl)cccc2Cl)c1COc1ccc2c(ccn2S(=O)(=O)c2cccc(C(=O)O)c2)c1`: the EC50 in series [1] was determined as 160 nM; in series [2], 1300 nM. The results for the Activity in series [3] and in series [4] were 87% and 63%, respectively.
As for `CC(C)c1onc(-c2c(Cl)cccc2Cl)c1CCc1nc2cc(-c3cccc(C(=O)O)c3)ccc2o1`, the concentration giving a half-maximal response (EC50) came out at 1200 nM in series [1] and 710 nM in series [2]. The Activity was found to be 41% in series [3] and 75% in series [4].
Take `CC(C)c1onc(-c2c(Cl)cccc2Cl)c1COc1ccc2c(ccn2Cc2cccc(C(=O)O)c2)c1`: the bioavailability in series [5] is 12%. For the same compound, the half-life in series [6] was 45 min. Further, the EC50 in series [1] was determined as 320 nM; in series [2], 210 nM. Besides, in series [7], the Vd was found to be 0.07 L/kg. For the same compound, in series [8], the clearance came out at 6.7 mL/min/kg. Further, the Activity in series [3] is 80%; in series [4] it was 84%.
For `CC(C)c1onc(-c2c(Cl)cccc2Cl)c1COc1ccc2[nH]cc(Cc3cccc(C(=O)O)c3)c2c1`, the concentration giving a half-maximal response (EC50) in series [1] is 1500 nM; in series [2], over 10000 nM. Further, in series [3], the Activity came out at 25%.
For the compound `CC(C)c1onc(-c2c(Cl)cccc2Cl)c1COc1ccc2c(c1)ncn2Cc1cccc(C(=O)O)c1`, in series [5], the bioavailability turned out to be 26%. In addition, the half-life in series [6] turned out to be 31 min. In addition, the half-maximal effective concentration (EC50) in series [1] came out at 1400 nM; in series [2] it was 5000 nM. Besides, in series [7], the Vd was found to be 0.085 L/kg. Besides, the clearance in series [8] was 4.4 mL/min/kg. The Activity in series [3] was found to be 38%; in series [4], 40%.
In the case of `CC(C)c1onc(-c2c(Cl)cccc2Cl)c1CCc1nc2cccc(Nc3cccc(C(=O)O)c3)c2o1`, the values for the concentration giving a half-maximal response (EC50) in series [1] and in series [2] were 1700 nM and over 10000 nM, respectively. Besides, the Activity in series [3] is 19%.
Regarding `CC(C)c1onc(-c2c(Cl)cccc2Cl)c1COc1ccc2c(c1)CCN(c1cccc(C(=O)O)c1)C2=O`, the EC50 in series [1] was 710 nM; in series [2] it was 8300 nM. Moreover, the Activity in series [3] was 52%; in series [4] it was 112%.
In turn, `CC(C)c1onc(-c2c(Cl)cccc2Cl)c1COc1ccc2sc(-c3cccc(C(=O)O)c3)cc2c1` came in with a bioavailability in series [5] of 8.5%. Moreover, the half-life in series [6] worked out at 15 min. The half-maximal effective concentration (EC50) in series [1] was found to be 55 nM; in series [2], 32 nM. Further, the Vd in series [7] was 0.72 L/kg. In series [8], this compound displayed a clearance of 66 mL/min/kg. Also, the Activity in series [3] worked out at 90%; in series [4], 87%.
Take `CC(C)c1onc(-c2c(Cl)cccc2Cl)c1COc1ccc2cc(-c3cccc(C(=O)O)c3)ccc2c1`: the figures for the concentration giving a half-maximal response (EC50) in series [1] and in series [2] were 110 nM and 130 nM, respectively. The Activity in series [3] is 88%; in series [4], 103%.
For `CC(C)c1onc(-c2c(Cl)cccc2Cl)c1COc1ccc2cc(-c3ccc(C(=O)O)cc3)ccc2c1`, the concentration for a half-maximal effect (EC50) in series [1] was determined as 440 nM; in series [2], 980 nM. The Activity in series [3] was 68%; in series [4], 170%.
As to `CC(C)c1onc(-c2c(Cl)cccc2Cl)c1CNc1nc2ccc(-c3cccc(C(=O)O)c3)cc2s1`, the EC50 in series [1] was found to be 960 nM; in series [2] it was 380 nM. Also, the results for the Activity in series [3] and in series [4] were 91% and 123%, respectively.
The matching figures for `CC(C)c1onc(-c2c(Cl)cccc2Cl)c1COc1ccc2c(Cc3cccc(C(=O)O)c3)c[nH]c2c1`: 590 nM, 930 nM, 81% and 32%.
The matching figures for `CC(C)c1onc(-c2c(Cl)cccc2Cl)c1COc1ccc2[nH]c(-c3cccc(C(=O)O)c3)cc2c1`: 480 nM, 630 nM, 81% and 103%.
On the same counts, the results for `CC(C)c1onc(-c2c(Cl)cccc2Cl)c1COc1ccc2c(ccn2Cc2ccc(C(=O)O)cc2)c1` are 160 nM, 330 nM, 80% and 79%.
